# Source: US20240033283A1, “FUNCTIONALIZED AND CROSSLINKED POLYMERS” (PMIDG, LLC, priority 2020, published 2024)
# Structures can show the parent of a compound that is named as a salt.
# Experiment: Lidocaine release from gels (dialysis tubing)
# Type: physicochemical
# Conditions: PBS, 37° C.
# Method: HA and HA-DVS-MBA (83.3% substitution) gels were prepared in a similar manner as described in Example 18 using 0.75% BDDE and a pH of 13.1. About 2 g of each gel were added to a vial and 105 uL of a 6% (w/w) lidocaine HCl in PBS solution was added to each sample. After mixing, the samples were autoclaved for 5 minutes at 121° C. Approx. 1.5 g of each gel was transferred to dialysis tubing (Aldon Corporation, IS13027, 6.4 mm×10 mm, cut-off: 12-14 kDa). […] The loaded dialysis tubing was placed in separate 45 ml PBS solutions and incubated at 37° C. under oscillating conditions. […] The lidocaine content was measured using HPLC. The percent release was determined by released amount divided by the initial amount added. The release of the lidocaine from the HA and HA-MBA gels was similar.
smiles,measurement,setting,value
"CCN(CC)CC(=O)Nc1c(C)cccc1C [Lidocaine only, lidocaine HCl]",Cumulative Release (%),Time 0.5 hr,82%
same,Cumulative Release (%),Time 1 hr,87%
same,Cumulative Release (%),Time 1.5 hr,86%
same,Cumulative Release (%),Time 2 hr,84%
same,Cumulative Release (%),Time 3.5 hr,82%
